Measured values from patent US11484607B2, “PSMA-targeted NIR dyes and their uses” (On Target Laboratories, LLC, priority 2015, dated 2022).

Key:
[1] = test system: PC3 tumor xenografts; test: OTL78 whole body imaging and tissue biodistribution, subcutaneous tumor; type: in vivo, mice; conditions: 10 nmol, 2 h
Experimental: (§2) Whole body Imaging & Tissue biodistribution: Seven-week-old male nu/nu mice were inoculated subcutaneously with 5.0×106 22Rv1, LNCaP, PC3 or A549 cells/mouse in 50% high concentrated matrigel with RPMI1640 medium on the shoulder. Growth of the tumors was measured in perpendicular directions every 2 days using a caliper (body weights were monitored on the same schedule), and the volumes of the tumors were calculated as 0.5×L×W2 (L=longest axis and W=axis perpendicular to L in millimeters). Once tumors reached approximately 300-400 mm3 in volume, animals (3-5 mice/group) were intravenously injected with appropriate dose of OTL78 in saline.
(§3) For whole body imaging and biodistribution studies, animals were euthanized after 2 h of administration of OTL78 by CO2 asphyxiation. For time dependent studies, animals were imaged under anesthesia using isoflurane. Imaging experiments were then performed using IVIS or AMI image systems. Following whole body imaging, animals were dissected and selected tissues were analyzed for fluorescence activity using IVIS or AMI image system and ROI of the tissues were calculated using Living Image 4.0 software or AMIView Image Analysis Software.

[2] = test system: 22Rv1 cells; test: Binding and internalization of OTL78 by epifluorescence microscopy; type: cell-based, human; conditions: 100 nM, 1 h
Experimental: (§1) Confocal Microscopy: 22Rv1, LNCaP, or PC3 cells (50,000 cells/well in 1 mL) were seeded into poly-D-lysine microwell Petri dishes and allowed cells to form monolayers over 12 h. Spent medium was replaced with fresh medium containing OTL78 (100 nM) and cells were incubated for 1 h at 37° C. or 4° C. After rinsing with fresh medium (2×1.0 mL) and saline (lx 1.0 mL), fluorescence images were acquired using an epi-microscopy.

[3] = test system: LNCaP cells; test: as above; type: cell-based, human; conditions: 100 nM, 1 h
Experimental: as §1

[4] = test system: PC3 cells; test: as above; type: cell-based, human; conditions: 100 nM, 1 h
Experimental: as §1

[5] = test system: A549 tumor xenografts; test: OTL78 whole body imaging and tissue biodistribution, subcutaneous tumor; type: in vivo, mice; conditions: 10 nmol, 2 h
Experimental: as §2, §3

[6] = test system: 22Rv1 tumor xenografts
Experimental: as §2, §3

[7] = Safety study of OTL78 (body weight, histopathology, clinical pathology)
Experimental: Safety Study: Seven-week-old healthy male Balb/c (5 mice/group) were administered with 6 μmol of freshly prepared OTL78 or saline dissolved in 100 μL of saline via tail vein injection on day zero. Body weights and clinical observations were monitored prior to dosing and daily thereafter from day zero to 14.
For immunohistopathology (IHC) studies, the animals were euthanized by CO2 asphyxiation on the day 14 and selected tissues (brain, heart, lung, liver, spleen, kidney, stomach, small intestine, large intestine, muscle, and skin) were collected into vials containing 4% formalin. Formalin fixed tissues were sectioned into 10 μm thick sections and mounted onto Superfrost Plus™ slides (Fisher Scientific, Pittsburgh Pa.). After staining the slides with H&E, IHC analysis of the tissues was conducted to determine to the toxicity of OTL78.
For clinical pathology studies, the animals were euthanized by CO2 asphyxiation on the day 14 and blood was collected to heparin by cardiac punch and blood work analysis was conducted at Purdue clinical pathology lab.

[8] = test system: 22Rv1 orthotopic tumors; test: OTL78 imaging of orthotopic prostate tumors, AMI image system; type: in vivo, SCID mice; conditions: 10 nmol, 2 h
Experimental: For orthotopic tumors, 2×10^5 22Rv1 cells/mouse in 10% high concentrated (HC) matrigel with RPMI1640 medium were surgically implanted in the prostate of seven-week-old male SCID mice. Briefly, seven-week-old male SCID mice were given 1-5% isoflurane for anesthesia and subcutaneous injection of 5 mg/kg meloxicam preoperatively for analgesia. The mice were placed dorsal side up and washed above the prostate with a chlorhexidine scrub to ensure a sterile area for incision. After an insertion was made using scalpel through the skin, the peritoneal lining was lifted to make a small incision using a scissor and widened using forceps. Dorsal lobes were exteriorized and gently stabilized with a wet (PBS) cotton swab. 22Rv1 cells (in 10 μL of 10% HC-matrigel) were injected the prostate using a 28-gage needle. After placing the prostate back into the peritoneum, the abdominal wall was sutured, the body wall was closed using 3-0 or 4-0 vicryl and the skin was closed using staples. Animals were monitored until use them for the studies. After one month, the animals were administered with OTL78 (10 nmol in 100 μL saline per mouse), euthanized after 2 h by CO2 asphyxiation, and imaged using AMI image system.

[9] = test system: basophils; test: Basophil activation test (Flow CAST) in human blood samples; type: cell-based
Experimental: Tolerability Studies: The blood samples were collected into hirudin tubes and used within an hour of collection. For each donor, 4 different tubes were prepared for allergen, positive controls, and negative control. Samples were analyzed using Flow CAST® high sensitivity Basophil Activation Test (BAT). Briefly, stimulation buffer (100 μL, background) or anti-FcεER antibody (100 μL) or fMLP (100 μL) or OTL78 (75 μM in 100 μL of saline) was added to tubes containing stimulation buffer (200 μL). 100 μL of blood was added to each tube and mixed gently. After adding staining reagent (40 μL) containing anti-CD63-CD203c-PE-DY647 and anti-CCR3-PE, each tube was mixed gently and incubated for 15 minutes at 37° C. Lysing reagent (2 mL) was added to each tube, mixed gently, incubated for 5-10 minutes at room temperature, and centrifuged for 5 minutes at 500×g. The supernatant was discarded and the cells were re-suspended in wash buffer (900 μL) and analyzed using flow cytometry. CD63-CD203c-PE-DY647+/CCR3-PE+ cell population considered as the activated basophils.

[10] = target: T1, PSMA on 22Rv1 cells (Homo sapiens, UniProt Q04609); test: OTL78 binding affinity (Kd), cell bound fluorescence by fluorometer; conditions: 30 min at 4° C.
T1 construct: host or cells: 22Rv1 human prostate cancer cells
Experimental: For OTL78 binding affinity, 22Rv1 or PC3 cells were seeded into a T75 flask and allowed to form a monolayer over 48 h. After trypsin digestion, cells were transferred into centrifuge tubes (1×10^6 cells/tube) and centrifuged. The medium was replaced with fresh medium containing increasing concentration of OTL78 and incubated for 30 min at 4° C. After rinsing with fresh medium (2×1.0 mL) and saline (1×1.0 mL), cells were lysed with 1% SDS with in saline (1.0 mL) and cell bound fluorescence was analyzed using a fluorometer (Cary Eclipse, Agilent Technologies). The binding affinity (Kd) was calculated using a plot of percent cell bound fluorescence versus concentration using GraphPad Prism 6.

[11] = Excitation and emission spectra by fluorometer; type: physicochemical; conditions: same concentration, 1 μM in 1 mL of PBS
Experimental: FIG. 38B—Excitation (Ex) & emission (Em) spectra of OTL78 (1 μM) and S0456 (1 μM) in 1 mL of PBS obtained using fluorometer.
Results and Conclusions: In an effort to improve limitations in current clinical practice of radical prostatectomy and tumor-specific imaging agents that are in the preclinical stages, OTL78 was assembled using: (i) a high affinity PSMA-targeting ligand (coined DUPA), (ii) a rationally designed 14 atoms long polyethylene glycol-dipeptide linker, and (iii) an inexpensive NIR dye ([…]) named S0456 (see FIG. 38A for the chemical structure). The dipeptide consisting of phenylalanine-tyrosine was designed to fit to the contours and chemistry of the tunnel accessing the binding pocket of the PSMA protein.

[12] = 0.3-120 nmol/mouse tested, 2 hour time point, IVIS

T1 sequence (Q04609 whole entry): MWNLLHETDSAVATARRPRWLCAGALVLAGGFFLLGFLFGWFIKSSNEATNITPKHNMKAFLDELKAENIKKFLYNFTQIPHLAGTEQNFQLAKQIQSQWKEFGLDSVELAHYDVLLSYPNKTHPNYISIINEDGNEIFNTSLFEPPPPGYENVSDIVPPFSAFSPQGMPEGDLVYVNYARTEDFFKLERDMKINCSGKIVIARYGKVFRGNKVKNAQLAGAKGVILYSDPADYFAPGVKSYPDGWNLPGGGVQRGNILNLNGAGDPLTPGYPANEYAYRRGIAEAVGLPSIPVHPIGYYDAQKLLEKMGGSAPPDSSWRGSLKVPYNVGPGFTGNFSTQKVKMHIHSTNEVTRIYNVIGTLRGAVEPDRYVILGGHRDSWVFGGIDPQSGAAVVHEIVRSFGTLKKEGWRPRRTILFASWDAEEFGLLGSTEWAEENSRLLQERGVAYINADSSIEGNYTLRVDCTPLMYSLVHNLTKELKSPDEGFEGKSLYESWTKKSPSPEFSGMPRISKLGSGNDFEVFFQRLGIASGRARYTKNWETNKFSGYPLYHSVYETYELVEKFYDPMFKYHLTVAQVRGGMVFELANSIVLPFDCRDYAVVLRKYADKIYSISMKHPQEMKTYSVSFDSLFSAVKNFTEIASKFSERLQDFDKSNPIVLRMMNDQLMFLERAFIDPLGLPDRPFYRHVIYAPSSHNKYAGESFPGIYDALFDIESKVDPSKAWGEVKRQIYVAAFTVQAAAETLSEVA

Structure (SMILES): CC1(C)C(/C=C/C2=C(Oc3ccc(C[C@H](NC(=O)[C@H](Cc4ccccc4)NC(=O)CCOCCOCCNC(=O)CC[C@H](NC(=O)N[C@@H](CCC(=O)O)C(=O)O)C(=O)O)C(=O)O)cc3)C(=C/C=C3/N(CCCCS(=O)(=O)O)c4ccc(S(=O)(=O)O)cc4C3(C)C)/CCC2)=[N+](CCCCS(=O)(=O)[O-])c2ccc(S(=O)(=O)O)cc21 [OTL78]
- fluorescence intensity of PC3 tumors compared to 22Rv1 tumors [1]: ~6 folds less
- labelling of 22Rv1 cells [2]: able to efficiently label
- labelling of LNCaP cells [3]: able to efficiently label
- labelling of PC3 cells [4]: not PC3 cells
- fluorescence intensity of A549 tumors compared to 22Rv1 tumors [5]: ~6 folds less
- accumulation in 22Rv1 tumors ([6]; 10 nmol, 2 h): accumulated predominantly
- dose of best TBR [6, 12]: 3-10 nmol/mouse
- dose range providing excellent TBR [6, 12]: 1-30 nmol per mouse
- time for skin uptake to clear ([6]; mouse, in vivo): 4 to 5 h
- body weight change over the course of the study ([7]; 6 μmol/mouse (600× of normal dose), day zero to 14): < 5 % increase
- clinical pathology analysis on blood samples ([7]; 6 μmol/mouse, day 14): No noticeable toxicities
- pathological changes in H&E staining of tissues ([7]; 6 μmol/mouse, day 14): no obvious pathological changers
- accumulation in orthotopic prostate tumors [8]: mainly accumulated in prostate tumors with no fluorescence observed in other tissues except kidneys
- detection of local regional metastasis in seminal vesicles ([8]; in the presence of primary tumor): able to detect
- stimulated index ([9]; FIG. 47E, ≥2 considered positive response): 1
- Percent of basophile activation, Avg ([9]; average of 3 healthy subjects): 2.8%
- Percent of basophile activation, Subject 1 ([9]; healthy subjects, OTL78 75 μM): 2.64%
- Percent of basophile activation, Subject 2 ([9]; healthy subjects, OTL78 75 μM): 2.67%
- Percent of basophile activation, Subject 3 ([9]; healthy subjects, OTL78 75 μM): 3.14%
- SI = Avg/background ([9]; stimulation index, ≥2 considered positive response): 1.1
- Kd [10]: 4.7 nM
- enhancement of the fluorescence of S0456 [11]: ≥ 2
